Target: T1, Cloned human M1 receptor (CHRM1) stably expressed in HEK293 cells (Homo sapiens, UniProt P11229)
T1 construct: expressed in transfected cells; host or cells: HEK293
T1 sequence (P11229 1-460): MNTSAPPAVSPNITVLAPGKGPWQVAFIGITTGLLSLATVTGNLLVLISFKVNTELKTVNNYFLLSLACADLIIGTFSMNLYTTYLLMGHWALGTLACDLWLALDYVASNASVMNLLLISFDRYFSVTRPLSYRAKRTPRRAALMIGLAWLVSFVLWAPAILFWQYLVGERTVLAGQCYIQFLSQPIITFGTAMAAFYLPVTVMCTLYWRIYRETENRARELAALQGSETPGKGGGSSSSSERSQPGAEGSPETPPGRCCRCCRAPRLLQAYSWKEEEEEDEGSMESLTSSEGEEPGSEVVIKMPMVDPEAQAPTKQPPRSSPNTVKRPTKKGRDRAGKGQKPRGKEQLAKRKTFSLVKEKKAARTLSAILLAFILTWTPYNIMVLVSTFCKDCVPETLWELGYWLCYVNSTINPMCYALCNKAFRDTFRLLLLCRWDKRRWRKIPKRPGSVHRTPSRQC
Experiment: CHRM1 Ca++ Flux Assay (agonist mode, FDSS 7000EX)
Assay type: cell-based
Settings: for Emax: HEK293, Percent Activity, read-out: M1 FDSS PA; for EC50: geometric mean if tested more than once
In short: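 Compounds tested as agonists at 11 concentrations in triplicate, with calcium traces captured over 3 minutes. Cells were HEK293 with stable human CHRM1 expression, plated overnight at 25K/well and loaded with calcium dye. Responses normalized to carbachol EC100 and fitted by four-parameter nonlinear regression.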

Row | Emax [%] | EC50 [nM] | Compound
1 | 90 | 12 | O=C(C1COC1)N1CC2(CC[C@@H](N3CCC(c4ccc(F)cc4OC(F)F)CC3)C2)C1 [Example 6B, (R)-(6-(4-(2-(difluoromethoxy)-4-fluorophenyl)piperidin-1-yl)-2-azaspiro[3.4]octan-2-yl)(oxetan-3-yl)methanone]
2 | 79 | 8 | O=C(C1COC1)N1CC2(CC[C@@H](N3CCC(c4ccccc4OC(F)(F)F)CC3)C2)C1 [Example 12A, (R)-oxetan-3-yl(6-(4-(2-(trifluoromethoxy)phenyl)piperidin-1-yl)-2-azaspiro[3.4]octan-2-yl)methanone]
3 | 0 | > 25000 | COc1ccccc1C1CCN([C@@H]2CCC3(C2)CN(c2nc(C)ns2)C3)CC1 [Example 3M, (R)-5-(6-(4-(2-methoxyphenyl)piperidin-1-yl)-2-azaspiro[3.4]octan-2-yl)-3-methyl-1,2,4-thiadiazole]
4 | 72 | 24 | CC(C)Oc1ccccc1C1CCN([C@@H]2CCC3(C2)CN(C(=O)C2COC2)C3)CC1 [Example 7K, (R)-(6-(4-(2-isopropoxyphenyl)piperidin-1-yl)-2-azaspiro[3.4]octan-2-yl)(oxetan-3-yl)methanone]
5 | 99 | 93 | c1ccc(C2CCN([C@@H]3CCC4(C3)CN(c3nnco3)C4)CC2)c(-c2ncco2)c1 [Example 2M, (R)-2-(6-(4-(2-(oxazol-2-yl)phenyl)piperidin-1-yl)-2-azaspiro[3.4]octan-2-yl)-1,3,4-oxadiazole]
6 | 85 | 24 | c1ccc(C2CCN([C@@H]3CCC4(C3)CN(c3cncnc3)C4)CC2)c(OC2COC2)c1 [Example 1K, (R)-6-(4-(2-(oxetan-3-yloxy)phenyl)piperidin-1-yl)-2-(pyrimidin-5-yl)-2-azaspiro[3.4]octane]
7 | 66 | 135 | CC(C)(O)COc1ccccc1C1CCN([C@@H]2CCC3(C2)CN(c2nncs2)C3)CC1 [Example 3G, (R)-1-(2-(1-(2-(1,3,4-thiadiazol-2-yl)-2-azaspiro[3.4]octan-6-yl)piperidin-4-yl)phenoxy)-2-methylpropan-2-ol]
8 | 70 | 69 | c1ccc(C2CCN([C@@H]3CCC4(C3)CN(c3cncnc3)C4)CC2)c(OCC2COC2)c1 [Example 1N, (R)-6-(4-(2-(oxetan-3-ylmethoxy)phenyl)piperidin-1-yl)-2-(pyrimidin-5-yl)-2-azaspiro[3.4]octane]
9 | 79 | 31 | CC(C)(O)CCOc1ccccc1C1CCN([C@@H]2CCC3(C2)CN(c2nnco2)C3)CC1 [Example 1F]
10 | 91 | 39 | O=C(C1COC1)N1CC2(CC[C@@H](N3CCC(c4ccccc4OCCC(F)(F)F)CC3)C2)C1 [Example 7GG, (R)-oxetan-3-yl(6-(4-(2-(3,3,3-trifluoropropoxy)phenyl)piperidin-1-yl)-2-azaspiro[3.4]octan-2-yl)methanone]
11 | 89 | 19 | c1ccc(C2CCN([C@@H]3CCC4(C3)CN(c3nnco3)C4)CC2)c(OC2COC2)c1 [Example 1D, (R)-2-(6-(4-(2-(oxetan-3-yloxy)phenyl)piperidin-1-yl)-2-azaspiro[3.4]octan-2-yl)-1,3,4-oxadiazole]
12 | 18 | 18 | CC(C)Oc1cc(F)ccc1C1CCN([C@@H]2CCC3(C2)CN(C(=O)C2COC2)C3)CC1 [Example 6D, (R)-(6-(4-(4-fluoro-2-isopropoxyphenyl)piperidin-1-yl)-2-azaspiro[3.4]octan-2-yl)(oxetan-3-yl)methanone]
13 | 61 | 102 | Fc1cncc(N2CC3(CC[C@@H](N4CCC(c5ccccc5C5CCOCC5)CC4)C3)C2)c1 [Example 5AA, (R)-2-(5-fluoropyridin-3-yl)-6-(4-(2-(tetrahydro-2H-pyran-4-yl)phenyl)piperidin-1-yl)-2-azaspiro[3.4]octane]
14 | 72 | 201 | c1ccc(C2CCN([C@@H]3CCC4(C3)CN(c3cncnc3)C4)CC2)c(C2CCOCC2)c1 [Example 5BB, (R)-2-(pyrimidin-5-yl)-6-(4-(2-(tetrahydro-2H-pyran-4-yl)phenyl)piperidin-1-yl)-2-azaspiro[3.4]octane]
15 | 78 | 15 | CC(C)(F)COc1ccccc1C1CCN([C@@H]2CCC3(C2)CN(C(=O)C2COC2)C3)CC1 [Example 7B, (R)-(6-(4-(2-(2-fluoro-2-methylpropoxy)phenyl)piperidin-1-yl)-2-azaspiro[3.4]octan-2-yl)(oxetan-3-yl)methanone]
16 | 60 | 215 | COc1ccc(F)cc1C1CCN([C@@H]2CCC3(C2)CN(c2ccnnc2)C3)CC1 [Example 5V, (R)-6-(4-(5-fluoro-2-methoxyphenyl)piperidin-1-yl)-2-(pyridazin-4-yl)-2-azaspiro[3.4]octane]
17 | 21 | 413 | COCCOc1ccccc1C1CCN([C@@H]2CCC3(C2)CN(c2ccnnc2)C3)CC1 [Example 5Z, (R)-6-(4-(2-(2-methoxyethoxy)phenyl)piperidin-1-yl)-2-(pyridazin-4-yl)-2-azaspiro[3.4]octane]
18 | 43 | 98 | c1ccc(C2CCN([C@@H]3CCC4(C3)CN(c3cncnc3)C4)CC2)c(O[C@@H]2CCOC2)c1 [Example 1P, (R)-2-(pyrimidin-5-yl)-6-(4-(2-(((R)-tetrahydrofuran-3-yl)oxy)phenyl)piperidin-1-yl)-2-azaspiro[3.4]octane]
19 | 74 | 147 | CC(C)(O)COc1ccccc1C1CCN([C@@H]2CCC3(C2)CN(c2nnco2)C3)CC1 [Example 2A, (R)-1-(2-(1-(2-(1,3,4-oxadiazol-2-yl)-2-azaspiro[3.4]octan-6-yl)piperidin-4-yl)phenoxy)-2-methylpropan-2-ol]
20 | 92 | 8 | c1ccc(C2CCN([C@@H]3CCC4(C3)CN(c3nncs3)C4)CC2)c(OC2COC2)c1 [Example 3A, (R)-2-(6-(4-(2-(oxetan-3-yloxy)phenyl)piperidin-1-yl)-2-azaspiro[3.4]octan-2-yl)-1,3,4-thiadiazole]
21 | 80 | 11 | O=C(C1COC1)N1CC2(CC[C@@H](N3CCC(c4ccccc4OCCC4COC4)CC3)C2)C1 [Example 7KK, (R)-oxetan-3-yl(6-(4-(2-(2-(oxetan-3-yl)ethoxy)phenyl)piperidin-1-yl)-2-azaspiro[3.4]octan-2-yl)methanone]
22 | 112 | 277 | c1ccc(C2CCN([C@@H]3CCC4(C3)CN(c3nnco3)C4)CC2)c(OC2CCOCC2)c1 [Example 2F, (R)-2-(6-(4-(2-((tetrahydro-2H-pyran-4-yl)oxy)phenyl)piperidin-1-yl)-2-azaspiro[3.4]octan-2-yl)-1,3,4-oxadiazole]
23 | 78 | 42 | COc1ccccc1C1CCN([C@@H]2CCC3(C2)CN(c2nncs2)C3)CC1 [Example 3D, (R)-2-(6-(4-(2-methoxyphenyl)piperidin-1-yl)-2-azaspiro[3.4]octan-2-yl)-1,3,4-thiadiazole]
24 | 89 | 106 | Fc1ccc(C2CCOCC2)c(C2CCN([C@@H]3CCC4(C3)CN(c3nnco3)C4)CC2)c1 [Example 2I, (R)-2-(6-(4-(5-fluoro-2-(tetrahydro-2H-pyran-4-yl)phenyl)piperidin-1-yl)-2-azaspiro[3.4]octan-2-yl)-1,3,4-oxadiazole]
25 | 0 | > 25000 | O=C(C1COC1)N1CC2(CC[C@H](N3CCC(c4ccccc4OC(F)(F)F)CC3)C2)C1 (single isomer, unassigned) [Example 8G]
26 | 101 | 46 | O=C(C1COC1)N1CC2(CC[C@@H](N3CCC(c4ccccc4OC[C@@H]4CCOC4)CC3)C2)C1 [Example 7E, oxetan-3-yl((R)-6-(4-(2-(((R)-tetrahydrofuran-3-yl)methoxy)phenyl)piperidin-1-yl)-2-azaspiro[3.4]octan-2-yl)methanone]
27 | 80 | 72 | c1ccc(C2CCN([C@@H]3CCC4(C3)CN(c3nncs3)C4)CC2)c(OCC2COC2)c1 [Example 1G, (R)-2-(6-(4-(2-(oxetan-3-ylmethoxy)phenyl)piperidin-1-yl)-2-azaspiro[3.4]octan-2-yl)-1,3,4-thiadiazole]
28 | 68 | 40 | COCCOc1ccccc1C1CCN([C@@H]2CCC3(C2)CN(c2nncs2)C3)CC1 [Example 3F, (R)-2-(6-(4-(2-(2-methoxyethoxy)phenyl)piperidin-1-yl)-2-azaspiro[3.4]octan-2-yl)-1,3,4-thiadiazole]
29 | 97 | 133 | c1ccc(C2CCOC2)c(C2CCN([C@@H]3CCC4(C3)CN(c3nnco3)C4)CC2)c1 (stereo partly drawn) [Example 2K, 2-((6R)-6-(4-(2-(tetrahydrofuran-3-yl)phenyl)piperidin-1-yl)-2-azaspiro[3.4]octan-2-yl)-1,3,4-oxadiazole]

Row | Compound | Emax [%] | EC50 [nM]
30 | CC(C)COc1ccccc1C1CCN([C@@H]2CCC3(C2)CN(C(=O)C2COC2)C3)CC1 [Example 7F, (R)-(6-(4-(2-isobutoxyphenyl)piperidin-1-yl)-2-azaspiro[3.4]octan-2-yl)(oxetan-3-yl)methanone] | 75 | 42

From patent publication US12122761B2, “2-azaspiro[3.4]octane derivatives as M4 agonists” (NOVARTIS AG, priority 2019, dated 2024)
